This note sets out measurements from ChEMBL document CHEMBL1201862, “PubChem BioAssay data set” (2004).

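Dose response: 5 concentrations. Exposure: 48 h. Format: 96-well plates. Endpoint: linear interpolation; highest concentration if not reached. GI50 marks 50% less growth.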 Calls of active or inactive are those of the source. No stated cut-off is given here; in the data, active = GI50 up to about 1.1 µM and inactive = higher.

What all share (assay): DTP human tumour cell line panel, 48 h
In test [1] the test system is NCI-H23.
The test system of test [2] is UACC-62.
Test [3] deals with EKVX.
Test [4] concerns SR.
Test [5] concerns Malme-3M.
Test [6] has as its system SW-620.
In test [7] the test system is SN12C.
The subject of test [8] is LOX IMVI.
The subject of test [9] is NCI/ADR-RES.
Test [10] relates to SF-539.
Test [11] has as its system A549.
Test [12] concerns SK-MEL-28.
In test [13] the test system is MDA-N.
Test [14] concerns SK-OV-3.
Test [15] concerns HOP-62.
The subject of test [16] is OVCAR-8.
Test [17] has as its system K562.
Test [18] concerns UACC-257.
The subject of test [19] is OVCAR-4.
Test [20] relates to HCC 2998.

Take `Nc1nc(N)c(N=Nc2ccc([As](=O)(O)O)c(O)c2)c(N)n1`: the GI50 in test [1] is 7.57 µM (inactive); in test [2], 31.5 µM (inactive); in test [3], > 63.5 µM (inactive); in test [4], 0.834 µM (active); in [5], 79.1 µM (inactive); in [6], 4.89 µM (inactive). Further, the GI50 was 12.1 µM (inactive) in [7]; 6.67 µM (inactive) in [8]; > 100 µM (inactive) in test [9]; 17.1 µM (inactive) in test [10]; > 82.4 µM (inactive) in test [11]; > 100 µM (inactive) in test [12]. The GI50 in [13] is 0.839 µM (active); in [14], 36.4 µM (inactive); in test [15], 8.59 µM (inactive); in test [16], 13.7 µM (inactive); in [17], 11.1 µM (inactive); in test [18] it was 91.6 µM (inactive). In addition, the GI50 in [19] was 32.1 µM (inactive).

`C=C1[C@H]2O[C@H]2[C@@H](OC(C)=O)[C@@]2(C)[C@@H](OC(C)=O)C[C@@H](OC(=O)CCC)[C@@](C)(O)[C@@H]2[C@@H](OC(C)=O)[C@]2(O)[C@@H](C)C(=O)O[C@H]2[C@H]1Cl`: the GI50 in test [1], in [2], in [3], in test [5], in test [6] and in test [7] was > 100 µM (inactive) each time. The GI50 in [9], in [10], in [11], in [12], in test [13] and in test [15] was > 100 µM (inactive) in each case. For the same compound, the GI50 in test [16], in test [17], in test [20], in [18] and in [19] was > 100 µM (inactive) in each case.

As for `CN(C)c1ccc(/C=N/CC2CCCN3CCCCC23)cc1` (stereo not given), the GI50 in test [1], in test [2], in test [3], in [5], in [8] and in test [9] was > 100 µM (inactive) in each case. Besides, the GI50 in test [11], in test [13], in test [14], in test [15], in test [16] and in test [20] was > 100 µM (inactive) throughout. Further, the GI50 in test [18] is > 100 µM (inactive).

Consider `O=c1[nH]c2ccccc2c(=O)c2cc3ccccc3cc12`, for which the GI50 in [1] was 19.1 µM (inactive); in test [2] it was 41.6 µM (inactive); in test [3] it was > 100 µM (inactive); in [5], 45.6 µM (inactive); in [6], 65.5 µM (inactive); in test [7], 71.4 µM (inactive). Further, the GI50 was 27.9 µM (inactive) in test [8]; 26.6 µM (inactive) in test [9]; 20.9 µM (inactive) in test [10]; 31.3 µM (inactive) in test [11]; 67 µM (inactive) in test [12]; > 100 µM (inactive) in test [13]. Further, the GI50 is 11.8 µM (inactive) in [14]; 10.4 µM (inactive) in [15]; 10 µM (inactive) in test [16]; > 100 µM (inactive) in [17]; > 100 µM (inactive) in test [20]; > 100 µM (inactive) in test [18]. Further, the GI50 in test [19] was 23.4 µM (inactive).

In the case of `CC1(C)OC[C@@]2([C@@H]3CC[C@@H](C3)C2(C)C)N1O`, the GI50 in [1] was > 100 µM (inactive); in test [2], > 100 µM (inactive); in test [3], > 100 µM (inactive); in test [5], 28.8 µM (inactive); in [6], > 100 µM (inactive); in test [7], > 100 µM (inactive). Further, the GI50 in test [8] was 92 µM (inactive); in test [9], > 100 µM (inactive); in [10], > 100 µM (inactive); in test [11], > 100 µM (inactive); in test [12] it was 46.9 µM (inactive); in test [13], > 100 µM (inactive). Further, the GI50 in [14], in test [15], in test [16], in [17], in test [18] and in test [19] was > 100 µM (inactive) throughout.

For the compound `CCOC(=O)c1nnsc1NN=C(C)C`, the GI50 in test [1], in test [2], in [3], in [5], in [6] and in test [7] was > 100 µM (inactive) each time. Further, the GI50 in test [8], in test [9], in test [10], in [11], in test [12] and in test [13] was > 100 µM (inactive) in each case. Also, the GI50 in [14], in test [15], in test [16], in test [17], in [20] and in test [18] was > 100 µM (inactive) each time. Moreover, the GI50 in test [19] is > 100 µM (inactive).

For the compound `CS(=O)(=O)NC12CCC(c3ccccc31)c1ccccc12`, the GI50 in [1], in test [2], in test [3], in test [4], in test [5] and in test [6] was > 100 µM (inactive) throughout. For the same compound, the GI50 in [7], in test [8], in [9], in test [10], in test [11] and in test [12] was > 100 µM (inactive) each time. In addition, the GI50 in test [13], in test [14], in test [15], in [17] and in test [19] was > 100 µM (inactive) throughout.

On to `COC(=O)C(=O)C(C(=O)C(=O)Nc1cccc([N+](=O)[O-])c1)c1nc2ccc(Cl)cc2nc1O` (stereo not given), for which the GI50 is > 100 µM (inactive) in test [1]; > 100 µM (inactive) in [2]; 18.1 µM (inactive) in [3]; > 100 µM (inactive) in [6]; > 100 µM (inactive) in [7]; > 100 µM (inactive) in test [8]. Further, the GI50 in [9] was > 100 µM (inactive); in [10], 45.5 µM (inactive); in [11], > 100 µM (inactive); in [12], > 100 µM (inactive); in test [13], > 100 µM (inactive); in test [14] it was > 100 µM (inactive). The GI50 in test [15], in test [16], in [20], in [18] and in test [19] was > 100 µM (inactive) each time.

In the case of `CCNCC(=O)Nc1ccc2c(c1)C(=O)c1ccc(NC(=O)CNCC)cc1C2=O`, the GI50 was 3.43 µM (inactive) in test [1]; 3.75 µM (inactive) in test [2]; 4.93 µM (inactive) in test [3]; 15.5 µM (inactive) in test [5]; 2.99 µM (inactive) in test [6]; 1.87 µM (inactive) in test [7]. The GI50 in test [8] is 2.26 µM (inactive); in test [9] it was 6.08 µM (inactive); in [10], 4.97 µM (inactive); in test [11] it was 2.41 µM (inactive); in [12] it was 5.61 µM (inactive); in test [13], 4.59 µM (inactive). Besides, the GI50 in test [14] is 2.76 µM (inactive); in [15], 5.75 µM (inactive); in test [16], 2.18 µM (inactive); in test [17], 1.78 µM (inactive); in test [20], 1.7 µM (inactive); in [18], 5.98 µM (inactive). In test [19], the GI50 was 0.514 µM (active).

On to `FC(F)(F)c1cnc(N/N=C(/c2ccccc2)c2ccccn2)c(Cl)c1`, for which the GI50 in [1] is 7.26 µM (inactive); in [2], 8.75 µM (inactive); in [3], 3.43 µM (inactive); in test [4], 2.76 µM (inactive); in test [6], 3.02 µM (inactive); in test [7], 7.52 µM (inactive). For the same compound, the GI50 was 2.78 µM (inactive) in [9]; 4.6 µM (inactive) in test [10]; 3.53 µM (inactive) in test [11]; 11.4 µM (inactive) in test [12]; 23.8 µM (inactive) in [13]; 4.76 µM (inactive) in [14]. Besides, the GI50 in test [15] is 7.4 µM (inactive); in test [16], 2.39 µM (inactive); in [17], 4.03 µM (inactive); in test [20], 5.92 µM (inactive); in [18], 2.49 µM (inactive); in test [19] it was 7.76 µM (inactive).

For `COC12C=CC(C=C1C#N)CC2.COC12C=CC(CC1)CC2=O` (stereo not given), the GI50 in test [1], in test [2], in test [3], in test [4], in test [5] and in test [6] was > 100 µM (inactive) each time. Further, the GI50 in test [7], in test [9], in test [10], in test [11], in test [12] and in test [13] was > 100 µM (inactive) throughout. Also, the GI50 in [14], in [15], in [16], in [17], in test [20] and in test [18] was > 100 µM (inactive) in each case. Further, the GI50 in [19] was > 100 µM (inactive).

Usually GI50 stands for the concentration that inhibits growth by half.
